From PubChem BioAssay (NCI)
Values joined by “and” are separate entries in the source; they are usually repeats but may differ in a detail not shown here. Equal entries are not always repeated.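 Following 48 hours of exposure in 96-well plates, responses at five concentrations were used to interpolate endpoints linearly. GI50: concentration for 50% inhibition of growth. The concentration for full growth arrest is given as TGI.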

Columns and labels:
Assay in all cases: NCI tumour cell line growth inhibition, 48 h
[1] = tested on: RXF 393 renal
[2] = tested on: TK-10 renal
[3] = tested on: MOLT-4 leukemia
[4] = tested on: SF-295 CNS
[5] = tested on: ACHN renal
[6] = tested on: 786-0 renal
[7] = tested on: A549 NSCLC
[8] = tested on: OVCAR-3 ovarian
[9] = tested on: DU-145 prostate
[10] = tested on: NCI/ADR-RES ovarian

| Structure (SMILES) | TGI [1] | TGI [2] | TGI [3] | TGI [4] | TGI [5] | TGI [6] | TGI [7] | TGI [8] | GI50 [1] | GI50 [2] | GI50 [9] | TGI [9] | GI50 [4] | GI50 [5] | GI50 [10] | TGI [10] | GI50 [6] | GI50 [7] | GI50 [8] | GI50 [3] |
| --- | --- | --- | --- | --- | --- | --- | --- | --- | --- | --- | --- | --- | --- | --- | --- | --- | --- | --- | --- | --- |
| O=C1CCC2(c3ccc(Cl)cc3)Nc3ncccc3N12 (centres undefined) | > 100 µM | > 100 µM | > 100 µM | > 100 µM | > 100 µM | > 100 µM | > 100 µM | > 100 µM | – | – | – | – | – | – | – | – | – | – | – | – |
| COc1ccc2occ(CCC(=O)O)c2c1 | > 100 µM | > 100 µM | > 100 µM | > 100 µM | > 100 µM | > 100 µM | > 100 µM | > 100 µM | – | – | – | – | – | – | – | – | – | – | – | – |
| COc1ccc(Sc2[nH]c(C(C)=O)c3ccccc23)cc1 | 39 µM | 37.5 µM | – | 26.7 µM | 49.6 µM | 34.8 µM | 51.3 µM | 24.6 µM | 13.6 µM | 15 µM | 16 µM | 36.8 µM | 11.6 µM | 16.5 µM | 11.8 µM | 31.8 µM | 16.5 µM | 4 µM | 12.2 µM | – |
| O=C(Nc1ccn(CCO)c(=O)n1)c1ccccc1 | > 100 µM | > 100 µM | – | > 100 µM | > 100 µM | > 100 µM | > 100 µM | > 100 µM | – | – | – | – | – | – | – | – | – | – | – | – |
| O=[N+]([O-])c1cccc(C2=NN(c3ccccc3)C[N+](c3ccc(Br)cc3)=N2)c1 | > 100 µM | > 100 µM | > 100 µM | > 100 µM | > 100 µM | > 100 µM | > 100 µM | – | – | – | – | – | – | – | – | – | – | – | – | – |
| CC(C)(C)NNC(=O)CCn1[nH]c(=O)c(Cl)c(Cl)c1=O | > 100 µM | > 100 µM | > 100 µM | > 100 µM | > 100 µM | > 100 µM | > 100 µM | > 100 µM | – | – | – | – | – | – | – | – | – | – | – | – |
| CCOC(=O)c1cnc2c(ccc3[nH]n(C)nc32)c1=O | 95.5 µM | > 100 µM | > 100 µM | > 100 µM | > 100 µM | > 100 µM | > 100 µM | > 100 µM | – | – | – | – | – | – | – | – | – | – | – | – |
| CO/N=C(/C)c1cccc(Nc2cc(-n3nnc4ccccc43)nc3ccccc23)c1 | – | > 100 µM | > 100 µM | 64.1 µM | > 100 µM | > 100 µM | > 100 µM | – | – | 26 µM | 40.4 µM | > 100 µM | 15 µM | 42.3 µM | 61.9 µM | > 100 µM | 45.5 µM | 38.7 µM | – | 7.18 µM |
| O=C(/C=C/c1ccccc1)CCC1C(=O)c2ccccc2C1=O | > 100 µM | – | > 100 µM | > 100 µM | > 100 µM | > 100 µM | > 100 µM | > 100 µM | – | – | – | > 100 µM | – | – | – | > 100 µM | – | – | – | – |
| CCCCCCCCCCCCCC(=O)OCC(C[As](=O)(O)O)OC(=O)CCCCCCCCCCCCC (centres undefined) | > 100 µM | > 100 µM | > 100 µM | – | > 100 µM | > 100 µM | > 100 µM | > 100 µM | – | – | – | – | – | – | – | – | – | – | – | – |
| CC(C)CCC1CC2C(=O)N(c3ccccc3)C(=O)C2c2[nH]c3ccccc3c21 (centres undefined) | 8.01 µM | 16.1 µM | 17.3 µM | 2.86 µM | 21.5 µM | 15.9 µM | 17.7 µM | 7.63 µM | – | – | – | – | – | – | – | – | – | – | – | – |
| Clc1ccc2c(c1)[nH]c1c2nc2ccccn21 | 68.3 µM and 24.2 µM | 31.2 µM | 76.8 µM and 42.7 µM | > 100 µM and 35.4 µM | 83 µM | 37.5 µM and 33.1 µM | > 100 µM and 74.2 µM | – | 26.6 µM and 11.7 µM | – | – | – | > 100 µM and 15.7 µM | 28.1 µM | – | – | – | – | – | 28.4 µM and 5.44 µM |
| CC12C/C(=C\c3ccccc3)C(=O)C3C1CCCC32 | – | > 100 µM | 53.1 µM | > 100 µM | > 100 µM | > 100 µM | > 100 µM | > 100 µM | – | – | – | – | – | – | – | – | – | – | – | – |
| O=CCC1CCCCC1 | > 100 µM | – | > 100 µM | > 100 µM | > 100 µM | > 100 µM | > 100 µM | > 100 µM | – | – | – | – | – | – | – | > 100 µM | – | – | – | – |
| COC(=O)C(C(=O)c1ccccc1)C(C(=O)C(=O)Nc1ccc(OC)cc1OC)C(=O)C(=O)c1ccc(C)cc1 (centres undefined) | > 100 µM | > 100 µM | > 100 µM | > 100 µM | > 100 µM | > 100 µM | > 100 µM | > 100 µM | – | – | – | – | – | – | – | – | – | – | – | – |
| CC(C)C(CCl)NC(=O)c1cccc(C(=O)N[C@H](CCl)C(C)C)n1 (stereo in doubt) | > 100 µM | > 100 µM | > 100 µM | > 100 µM | > 100 µM | > 100 µM | > 100 µM | > 100 µM | – | – | – | – | – | – | – | – | – | – | – | – |
| O=C1c2ccccc2C(=O)N1CCn1ccc(NC(c2ccccc2)(c2ccccc2)c2ccccc2)nc1=O | 35.5 µM | 69.5 µM | 43 µM | 28.8 µM | 92.7 µM | > 100 µM | > 100 µM | 65.8 µM | – | – | – | – | – | – | – | – | – | – | – | – |
| N.N.N.N.O=C([O-])CCl.O=C([O-])CCl.[Co+3].[O-][Cl+3]([O-])([O-])[O-] | – | > 100 µM | > 100 µM | > 100 µM | > 100 µM | > 100 µM | > 100 µM | > 100 µM | – | > 100 µM | – | – | > 100 µM | > 100 µM | – | – | > 100 µM | > 100 µM | > 100 µM | > 100 µM |
| COC(=O)C[C@](O)(CCCC(C)(C)O)C(=O)O[C@@H]1C(OC)=C[C@]23CCCN2CCc2cc4c(cc2[C@H]13)OCO4 | 0.503 µM and 0.107 µM | – | – | – | 4.64 µM and 0.541 µM | – | – | – | 0.0217 µM | 0.0347 µM | 0.0343 µM | – | 0.0237 µM | 0.0407 µM | 0.934 µM | 14.6 µM | 0.033 µM | 0.0953 µM and 0.0238 µM | 0.251 µM and 0.0286 µM | – |
| CC[As](CC)SC[C@H](C)C(=O)N1CCC[C@H]1C(=O)O | 0.475 µM | 0.396 µM | 0.0586 µM | 2 µM | 0.169 µM | 0.0743 µM | – | 0.0347 µM | < 0.0297 µM | 0.113 µM | 0.0297 µM | 0.104 µM | 0.743 µM | 0.0548 µM | 0.0152 µM | 0.13 µM | 0.021 µM | – | 0.0135 µM | 0.016 µM |
| CC(C)C1=CC23CCC4C(C)(C(=O)O)CCCC4(C)C2CC1C1C(=O)N(c2ccc(Cc4ccc(N5C(=O)C6C7CC8C9(C)CCCC(C)(C(=O)O)C9CCC8(C=C7C(C)C)C6C5=O)cc4)cc2)C(=O)C13 (centres undefined) | 27.4 µM | 29.7 µM | 32.9 µM | – | 17.8 µM | 22.8 µM | 15.7 µM | 22.6 µM | – | – | – | 25.3 µM | – | – | – | – | – | – | – | – |
| Cc1cn2c(=O)c3ncn(C4OC(CO)C(O)C4O)c3n(C)c2n1 (centres undefined) | > 100 µM | > 100 µM | > 100 µM | > 100 µM | > 100 µM | > 100 µM | > 100 µM | > 100 µM | – | – | – | – | – | – | – | – | – | – | – | – |
